Read-outs that look alike come from different tables or passages of the source. Ends that are not written are not given here.
Assays:
[1] = target: T1, Skp2-cyclin A interaction (Homo sapiens, UniProt P20248); experiment: GST pull-down, blocking of Skp2-cyclin A interaction by peptides; type: binding; conditions: GST-Skp2N, myc-cyclin A/Cdk2 transfected 293T cell extracts
T1 construct: expressed in transfected cells; host or cells: 293T (cyclin A/Cdk2)
Description: (§1) GST pull down, p27 ubiquitylation assay, and cyclin A kinase assay. GST fusion proteins were purified on GSH-beads (Amersham), which were then incubated with transfected cell extracts for 1 hour in 4° C. with rocking. The beads were washed three times with lysis buffer (25 mM Hepes pH 7.6, 100 mM KCl, 0.1 mM EDTA, 10 mM MgCl2, 0.1% NP-40, 10% glycerol, 1 mM DTT) before analysis by SDS-PAGE and Western blotting.
(§2) Skp2-cyclin A interaction and p27-cyclin A interaction can be blocked by distinct peptides. An important aspect of the RxL-1-IP interaction is that it can be blocked by a short RxL peptide (Adams et al., 1996). If the Skp2-cyclin A/Cdk2 interaction and the p27-cyclin A/Cdk2 interaction are mediated by different sequences on both sides of the interaction, as shown above, it can be predicted that the RxL peptide should not block Skp2-cyclin A interaction. […] Peptide concentrations required for their respective blocking activities were similar for RxL and 4060 peptides.

p27-cyclin A interaction = target: T2, p27-cyclin A interaction (Homo sapiens, UniProt P20248); experiment: GST pull-down, blocking of p27-cyclin A interaction; type: binding; conditions: GST-p27, myc-cyclin A/Cdk2 transfected 293T cell extracts
T2 construct: expressed in transfected cells; host or cells: 293T (cyclin A/Cdk2)
Description: as §1, §2
Skp2 competes with p27/p21, but not E2F1, for binding to cyclin A. Whether the apparently distinct Skp2-cyclin A interaction and p27-cyclin A interaction are competitive against each other was next evaluated. […] Whether the competition between Skp2 and p27/p21 for cyclin A binding could be observed in vivo with endogenous proteins under physiological conditions was next determined. […]

cyclin A/Cdk2 [2] = target: T3, cyclin A/Cdk2 (Homo sapiens, UniProt P20248+P24941); experiment: IP-kinase assay with myc-cyclin A/Cdk2 transfected 293T cell extract; type: biochemical; conditions: increasing amounts of peptide
T3 construct: made in house; host or cells: insect cells (baculovirus)
Description: In panel A, an IP-kinase assay was performed with myc-cyclin A/Cdk2 transfected 293T cell extract in the presence of increasing amounts of RxL or 4060 peptides. Phosphorylation of GST-Skp2N is visible in this gel. […] As indicated, increasing amounts of the 4060 or 4060AAAA peptides were included in the reactions. Phosphorylation of Rb-C was quantified and plotted as shown.
Cyclin A/Cdk2 kinase assays were performed as described previously (Ji et al., 2004). Both immuno-purified myc-cyclin A/Cdk2 on beads and GST-purified and eluted GST-cyclin A/Cdk2 (baculovirus vectors for GST-cyclin A and Cdk2 were provided by Brian Dynlacht) were used. The amounts of purified proteins were determined by comparing them with known amounts of standard proteins in Coomassie blue stained gels. Phosphorylation of GST-Rb-C was quantified with the ImageQuant software. The Ki of various proteins was determined by non-linear least squares analysis. […] Actual amounts of proteins in 7.5×10^4 HeLa cells were then determined (for example, the amounts of p27, Skp2, and cyclin A in 7.5×10^4 HeLa cells were determined to be about 0.1, 0.2, and 0.1 pmoles, respectively, at 14 hours post-replating; and about 0.01, 0.1, and 1.0 pmoles, respectively, at 19 hours post-replating). […]

cyclin A/Cdk2 [3] = target: T3, cyclin A/Cdk2; experiment: In vitro cyclin A/Cdk2 kinase assay with purified proteins (GST-Rb-C substrate); type: biochemical
Description: Cyclin A/Cdk2 kinase assays were performed as described previously (Ji et al., 2004). Both immuno-purified myc-cyclin A/Cdk2 on beads and GST-purified and eluted GST-cyclin A/Cdk2 (baculovirus vectors for GST-cyclin A and Cdk2 were provided by Brian Dynlacht) were used. The amounts of purified proteins were determined by comparing them with known amounts of standard proteins in Coomassie blue stained gels. Phosphorylation of GST-Rb-C was quantified with the ImageQuant software. The Ki of various proteins was determined by non-linear least squares analysis. To determine the amounts of various proteins in synchronized HeLa cells, extracts representing 7.5×10^4 HeLa cells were resolved with known amounts of purified proteins and compared in the same Western blots. Actual amounts of proteins in 7.5×10^4 HeLa cells were then determined (for example, the amounts of p27, Skp2, and cyclin A in 7.5×10^4 HeLa cells were determined to be about 0.1, 0.2, and 0.1 pmoles, respectively, at 14 hours post-replating; and about 0.01, 0.1, and 1.0 pmoles, respectively, at 19 hours post-replating).
For kinase reactions, insect cell-produced and purified GST-cyclin A/Cdk2 was used at a concentration of ˜3 nM, which was the lowest concentration that yielded readily detectible phosphorylation of GST-Rb-C here. Purified p27, GST-Skp2, and Skp2N were titrated into the kinase reaction over a wide range of concentrations (FIGS. 7A, B, and C). Phosphorylation of Rb-C was measured and plotted, and the Ki of these various proteins were determined by non-linear least squares analysis (FIG. 7F).
Since Skp2 competes with p27 for binding to cyclin A and Skp2's Ki is about 100-fold higher than p27's Ki, it can be reasoned that, at concentrations well below its Ki, Skp2 might be able to protect cyclin A/Cdk2 from inhibition by p27. To test this hypothesis, the same cyclin A/Cdk2 kinase assay was carried out to determine the inhibitory activity of p27 in the presence of 80 nM of Skp2N.
It was then determined whether the 4060 peptide could prevent Skp2N from protecting cyclin A/Cdk2 from inhibition by p27. […] When 80 nM of Skp2N was included, 5 nM of p27 lost its ability to inhibit the kinase activity (lane 3). […] These findings indicate that the Skp2-cyclin A interaction is also a potential target to inhibit cyclin A kinase activity in tumor cells, particularly those overexpressing Skp2.
To test this prediction, various peptides were added to an in vitro kinase reaction with purified cyclin A/Cdk2 (˜3 nM concentration). An E2F1-derived RxL peptide, LDL peptide, was used for comparison since it could inhibit cyclin A/Cdk2 kinase activity (Sun et al., 2006, and see next section). Since a TAT sequence was later added to these peptides for trans-membrane delivery (see next section), two versions of each peptide (without TAT and with TAT) was used in these kinase assays. These two versions of peptides yielded identical results and therefore only presented results with one version of the peptides.
The effects of the 4060 peptide on cyclin A/Cdk2 kinase activity in the presence of Skp2 and p27 were then determined.

[4] = target: T4, interaction between cellular Skp2 and cyclin A/Cdk2 (Homo sapiens, UniProt P20248); experiment: Coimmunoprecipitation with cyclin A from peptide-treated U2OS cells; type: cell-based; conditions: 50 μM peptide, twelve hours
T4 construct: endogenous in cells; host or cells: U2OS
Description: (§3) FIG. 12 is photographs of western blots and kinase assays and graphs showing the effects of trans-membrane delivery of the 4060 peptide. In Panel A, U2OS cells were treated with 50 μM of indicated peptide for twelve hours. Cell extracts were prepared for immunoprecipitation and Western blot analysis as indicated. […] In Panel C, the same extracts were used in IP-kinase assays as indicated. The extent of phosphorylation was quantified and plotted.
(§4) The loss of Skp2-cyclin A/Cdk2 interaction was not due to a reduction in levels of these proteins (FIG. 12B). Importantly, cellular p27 protein levels were not affected by the blocking peptide. […] Here, it is important to point out that although we used p27 as an inhibitor of cyclin A-associated kinase activity in purified kinase reactions with the 4060 blocking peptide shown in FIG. 11, the effects of blocking Skp2-cyclin A interaction on cyclin A-associated kinase activity in cells is unlikely to be mediated by p27 alone. There was no significant interaction between p27 and cyclin A in U2OS cells before and after treatment of TAT-4060. p27 family members p21 and p57, and the pocket proteins p107 and p130 (Adams et al., 1996) may bind and inhibit cyclin A-associated kinase activity through the RxL-HP interaction mechanism. […]

p27 = experiment: Western blot of peptide-treated U2OS cell extracts; type: cell-based, human; conditions: U2OS cells, 50 μM peptide, twelve hours
Description: as §3, §4

[5] = system: cyclin A-associated kinase activity; experiment: IP-kinase assay of anti-cyclin A and anti-Cdk2 immune complexes from peptide-treated U2OS cells; type: cell-based, human; conditions: 50 μM peptide, twelve hours, compared with TAT-4060AAAA or TAT-Umt
Description: as §3, §4

U2OS cells = system: U2OS cells
Description: It is currently unknown how peptide concentrations in the culture media translate into intro-cellular peptide concentrations.
Whether artificial manipulation of Skp2 protein levels in U2OS cells could change the IC50 of various peptides was also investigated.
(§5) Cell proliferation and survival assays. For the cell proliferation assay shown in FIG. 10D, 1×10^4 cells were plated in each well of 24 well plates and allowed to grow for a course of four days in the presence of 10% FBS. Cell numbers were counted every day from triplet wells. For cell survival assays in FIGS. 13, 14 and 15, 1×10^3 cells were plated in each well of 96 well plates and allowed to adhere overnight in the presence of 10% FBS. The cells were washed once with Opti-MEM (GIBCO) followed by incubation with different concentrations of peptides in Opti-MEM for 24 hours in triplicate. MTS assay was then performed following manufacturer's protocol (Promega).

[6] = system: human diploid fibroblasts WI-38; experiment: Cell survival MTS assay, WI-38; type: cell-based; conditions: 120 μM, 24 hours
Description: In comparison, both TAT-Umt and TAT-4060 inhibited cyclin A/Cdk2 kinase activity in vitro at peptide concentrations of 100 μM (FIG. 11B). It is currently unknown how peptide concentrations in the culture media translate into intro-cellular peptide concentrations.
as §5

HeLa cells = experiment: Cell survival MTS assay, HeLa; type: cell-based, human; conditions: high levels of Skp2
Excerpt: IC50 of the 4060 peptide positively correlates with Skp2 protein abundance in cancer cells. Skp2 is frequently overexpressed at various levels in various cancer cells. If TAT-4060 kills cancer cells by disrupting Skp2-cyclin A interaction, higher peptide concentrations should be needed to kill cancer cells with higher levels of Skp2. In comparison, since TAT-LDL is believed to kill cancer cells by blocking access of cyclin A to E2F1, there need not be a direct correlation between effective TAT-LDL concentrations and cellular Skp2 protein levels. To test this prediction, Skp2 protein levels and IC50 of both TAT-4060 and TAT-LDL was determined for the panel of four cancer cell lines.
as §5

Blocking of Skp2N-cyclin A interaction [1] | Blocking of p27-cyclin A interaction (p27-cyclin A interaction) | Effect of peptide itself on cyclin A/Cdk2 kinase activity towards Rb-C (cyclin A/Cdk2 [2]) | Sequence | Inhibitory effect on cyclin A/Cdk2 kinase activity (cyclin A/Cdk2 [3]; 1 μM and 10 μM peptide) | Inhibition of cyclin A/Cdk2 kinase activity (cyclin A/Cdk2 [3]; 100 μM peptide) | Dissociation of interaction between cellular Skp2 and cyclin A/Cdk2 [4] | Cellular p27 protein levels (p27) | Kinase activity in anti-cyclin A and anti-Cdk2 immune complexes [5] | Concentration of peptide to achieve 40% killing (U2OS cells; U2OS with artificial decrease in Skp2 protein levels (knockdown)) [µM] | Cell killing effectiveness (U2OS cells; U2OS with artificial increase of Skp2 protein levels (overexpression)) | Cell killing effect of single peptide (U2OS cells; U2OS, 1 or 2 μM, 24 hours) | Concentration of peptide to achieve 40% killing (U2OS cells; U2OS, Skp2 levels not manipulated) [µM] | Cell killing effect (U2OS cells; U2OS, twenty four hours after addition of peptides) | IC50 (U2OS cells; read-out: IC50 of cell killing, U2OS, 24 hours, MTS) [µM] | WI-38 cells killed [6] | Peptide concentration required for cell killing (HeLa cells)
but not the Skp2N-cyclin A interaction | blocking the p27-cyclin A interaction | inhibited the kinase activity | SACRNLFG (peptide RxL) [reference compound] | – | – | – | – | – | – | – | – | – | – | – | – | –
– | – | – | YGRKKRRQRRRGKTSELLSGMGVSALEKEE [TAT-4060] | did not show inhibitory effect | significant inhibition | resulted in dissociation | not affected | clear reduction | 20 | nearly as ineffective as TAT-Umt | neither TAT-LDL nor TAT-4060 exhibited any cell killing effects | 40 | induced significant cell death | 35 | no effect | very high concentrations

Reference: patent US8173604B2, “Inhibition of Skp2-cyclin a interaction” (Albert Einstein College of Medicine of Yeshiva University, priority 2006, dated 2012)
